Results from patent publication US20260262643A1, “HERBICIDAL BENZOXAZINES” (FMC CORPORATION, priority 2022, published 2026).

What was measured:
[1] = test system: soybean; assay: Test A preemergence; format: in vivo, Glycine max; details: Glycine max, pre-emergence, 240 h, visual injury after 10 days, 0 to 100 scale, 0 is no effect, 100 is complete control, read-out: Plant response rating, Soybean
Outline: (§1)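 Plants were grown in loam and sand and treated preemergence or postemergence (one- to two-leaf stage, 2–10 cm) with compound in solvent plus surfactant. Response was scored against untreated controls after 10 greenhouse days, where 0 means no effect and 100 complete control.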

[2] = test system: foxtail, giant; assay: Test A preemergence; format: in vivo, Setaria faberi; details: Setaria faberi, pre-emergence, 240 h, visual injury after 10 days, 0 to 100 scale, 0 is no effect, 100 is complete control, read-out: Plant response rating, Foxtail, Giant
Outline: as §1

[3] = test system: oat, wild; assay: Test A preemergence; format: in vivo, Avena fatua; details: Avena fatua, pre-emergence, 240 h, visual injury after 10 days, 0 to 100 scale, 0 is no effect, 100 is complete control, read-out: Plant response rating, Oat, Wild
Outline: as §1

[4] = test system: kochia; assay: Test A postemergence; format: in vivo, Bassia scoparia; details: Bassia scoparia, post-emergence, 240 h, postemergence, 10 days, 0 to 100 scale (0 no effect, 100 complete control)
Outline: as §1

[5] = test system: ragweed; assay: Test A preemergence; format: in vivo, Ambrosia artemisiifolia; details: Ambrosia artemisiifolia, pre-emergence, 240 h, visual injury after 10 days, 0 to 100 scale, 0 is no effect, 100 is complete control, read-out: Plant response rating, Ragweed
Outline: as §1

[6] = test system: pigweed, palmer; assay: Test A postemergence; format: in vivo, Amaranthus palmeri; details: Amaranthus palmeri, post-emergence, 240 h, postemergence, 10 days, 0 to 100 scale (0 no effect, 100 complete control)
Outline: as §1

[7] = test system: barnyardgrass; assay: Test B flooded paddy test; format: in vivo, Echinochloa crus-galli; details: Echinochloa crus-galli, 312 h, 250 g ai/ha, Flood, 13 days, 0 to 100 scale (0 no effect, 100 complete control); read-out: Plant response rating, Barnyardgrass
Outline: (§2)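 2-leaf stage; pots flooded 3 cm over soil; compound dosed into paddy water; depth kept constant. Greenhouse, 13 d. Visual rating vs controls, 0 (no effect)–100 (complete control). Dash = no result.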

[8] = test system: wheat; assay: Test A postemergence; format: in vivo, Triticum aestivum; details: Triticum aestivum, post-emergence, 240 h, postemergence, 10 days, 0 to 100 scale (0 no effect, 100 complete control)
Outline: as §1

[9] = test system: corn; assay: Test A preemergence; format: in vivo, Zea mays; details: Zea mays, pre-emergence, 240 h, visual injury after 10 days, 0 to 100 scale, 0 is no effect, 100 is complete control
Outline: as §1

[10] = test system: rice; assay: Test B flooded paddy test; format: in vivo, Oryza sativa; details: Oryza sativa, 312 h; 250 g ai/ha, Flood, 13 days, 0 to 100 scale (0 no effect, 100 complete control); read-out: Plant response rating, Rice
Outline: as §2

[11] = test system: blackgrass; assay: Test A postemergence; format: in vivo, Alopecurus myosuroides; details: Alopecurus myosuroides, post-emergence, 240 h, postemergence, 10 days, 0 to 100 scale (0 no effect, 100 complete control)
Outline: as §1

[12] = test system: horseweed; assay: Test A postemergence; format: in vivo, Erigeron canadensis; details: Erigeron canadensis, post-emergence, 240 h, postemergence, 10 days, 0 to 100 scale (0 no effect, 100 complete control)
Outline: as §1

[13] = test system: pigweed, palmer; assay: Test A preemergence; format: in vivo, Amaranthus palmeri; details: Amaranthus palmeri, pre-emergence, 240 h, visual injury after 10 days, 0 to 100 scale, 0 is no effect, 100 is complete control, read-out: Plant response rating, Pigweed, Palmer
Outline: as §1

[14] = test system: oat, wild; assay: Test A postemergence; format: in vivo, Avena fatua; details: Avena fatua, post-emergence, 240 h, postemergence, 10 days, 0 to 100 scale (0 no effect, 100 complete control)
Outline: as §1

Q: For Cc1cccc2c1O[C@@H](C)CN2C(=O)c1cccc(-n2cnn(C)c2=O)c1 [Compound 117, 4-[3-[[(2S)-2,3-Dihydro-2,8-dimethyl-4H-1,4-benzoxazin-4-yl]carbonyl]phenyl]-2,4-dihydro-2-methyl-3H-1,2,4-triazol-3-one], which plant injury at 125 g/ha ([1]; 125 g ai/ha) is on record?
A: The plant injury at 125 g/ha was 30%.

Q: What about the plant injury at 500 g/ha ([1]; 500 g ai/ha) of the same compound?
A: The plant injury at 500 g/ha was 70%.

Q: What about the pest or weed control at 125 g/ha ([2]; 125 g ai/ha) of the same compound?
A: The pest or weed control at 125 g/ha was 60%.

Q: What about the pest or weed control at 500 g/ha ([2]; 500 g ai/ha) of the same compound?
A: Its pest or weed control at 500 g/ha is 90%.

Q: What about the pest or weed control at 125 g/ha ([3]; 125 g ai/ha) of the same compound?
A: The pest or weed control at 125 g/ha was 20%.

Q: What about the pest or weed control at 500 g/ha ([3]; 500 g ai/ha) of the same compound?
A: Its pest or weed control at 500 g/ha is 70%.

Q: And the pest or weed control at 125 g/ha ([4]; 125 g ai/ha, read-out: Kochia plant response rating)?
A: Its pest or weed control at 125 g/ha is 30%.

Q: What about the pest or weed control at 500 g/ha ([4]; 500 g ai/ha, visual injury, read-out: Plant response rating, Kochia) of the same compound?
A: The pest or weed control at 500 g/ha was 70%.

Q: And the pest or weed control at 125 g/ha ([5]; 125 g ai/ha)?
A: The pest or weed control at 125 g/ha was 0%.

Q: And the pest or weed control at 500 g/ha ([5]; 500 g ai/ha)?
A: The pest or weed control at 500 g/ha was 40%.

Q: And the pest or weed control at 125 g/ha ([6]; 125 g ai/ha, read-out: Pigweed, Palmer plant response rating)?
A: Its pest or weed control at 125 g/ha is 10%.

Q: What about the pest or weed control at 500 g/ha ([6]; 500 g ai/ha, visual injury, read-out: Plant response rating, Pigweed, Palmer) of the same compound?
A: The pest or weed control at 500 g/ha was 30%.

Q: And the pest or weed control at 250 g/ha [7]?
A: The pest or weed control at 250 g/ha was 0%.

Q: And the plant injury at 125 g/ha ([8]; 125 g ai/ha, read-out: Wheat plant response rating)?
A: The plant injury at 125 g/ha was 10%.

Q: What about the plant injury at 500 g/ha ([8]; 500 g ai/ha, visual injury, read-out: Plant response rating, Wheat) of the same compound?
A: The plant injury at 500 g/ha was 40%.

Q: What about the Corn plant response rating (crop injury, 0 = no effect, 100 = complete kill) at 125 g/ha ([9]; 125 g ai/ha) of the same compound?
A: The Corn plant response rating (crop injury, 0 = no effect, 100 = complete kill) at 125 g/ha was 0%.

Q: What about the Corn plant response rating (crop injury, 0 = no effect, 100 = complete kill) at 500 g/ha ([9]; 500 g ai/ha) of the same compound?
A: Its Corn plant response rating (crop injury, 0 = no effect, 100 = complete kill) at 500 g/ha is 10%.

Q: And the plant injury at 250 g/ha [10]?
A: The plant injury at 250 g/ha was 0%.

Q: And the pest or weed control at 125 g/ha ([11]; 125 g ai/ha, read-out: Blackgrass plant response rating)?
A: Its pest or weed control at 125 g/ha is 50%.

Q: And the pest or weed control at 500 g/ha ([11]; 500 g ai/ha, visual injury, read-out: Plant response rating, Blackgrass)?
A: The pest or weed control at 500 g/ha was 90%.

Q: What about the pest or weed control at 125 g/ha ([12]; 125 g ai/ha, read-out: Horseweed plant response rating) of the same compound?
A: Its pest or weed control at 125 g/ha is 0%.

Q: And the pest or weed control at 500 g/ha ([12]; 500 g ai/ha, visual injury, read-out: Plant response rating, Horseweed)?
A: The pest or weed control at 500 g/ha was 10%.

Q: And the pest or weed control at 125 g/ha ([13]; 125 g ai/ha)?
A: The pest or weed control at 125 g/ha was 20%.

Q: And the pest or weed control at 500 g/ha ([13]; 500 g ai/ha)?
A: Its pest or weed control at 500 g/ha is 80%.

Q: And the pest or weed control at 125 g/ha ([14]; 125 g ai/ha, read-out: Oat, Wild plant response rating)?
A: The pest or weed control at 125 g/ha was 10%.

Q: And the pest or weed control at 500 g/ha ([14]; 500 g ai/ha, visual injury, read-out: Plant response rating, Oat, Wild)?
A: The pest or weed control at 500 g/ha was 40%.
